We go through 18 molecules from patent US20170204380A1, “GLYCOSYL TRANSFERASES AND THEIR USES” (TECHNISCHE UNIVERSITAT MUNCHEN, priority 2014, published 2017).

The Km is the concentration of substrate that gives half-maximal velocity. One may read the kcat as the number of substrate molecules converted per active site and unit of time at saturation. The kcat/Km is the second-order rate constant that governs catalysis at low substrate concentration.

The target in data set [1] is T1, VvGT14a (Vitis vinifera, UniProt F6H0R6). Nature of the data set: Substrate screening, radiochemical analysis with UDP-[14C]glucose. It is filed as biochemical. On the procedure:
(§1) In the initial screening, each reaction mixture (200 μL in total) contained Tris-HCl buffer (100 mM, pH 8, 10 mM 2-mercaptoethanol), 37 pmol UDP-[^14C]glucose (0.01 μCi, Biotrend, Köln, Germany), substrate (50 μL of a 1 mg/mL stock solution) and purified protein (0.5-0.8 μg/μL). […] The organic phase was mixed with 2 mL Pro Flow P+ cocktail (Meridian Biotechnologies Ltd., Epsom, UK) and radioactivity was determined by liquid scintillation counting (LSC, Tri-Carb 2800TR, Perkin Elmer, Waltham Mass., USA). Additionally, negative controls without substrate were performed.
(§2) The recombinant proteins were expressed with an N-terminal GST-tag, affinity purified and verified by SDS-PAGE and Western Blot using GST-specific antibody.

The target of data set [2] is T2, VvGT16 (Vitis vinifera, UniProt F6HTJ4). The description is as above. Format: biochemical. As to the method:
as §1, §2

Data set [3] addresses T3, VvGT15a (Vitis vinifera, UniProt A0ABY9C1E0). The description is as above. It is filed as biochemical. On the procedure: as §1, §2
Data set [4] addresses T4, VvGT15c (Vitis vinifera, UniProt A0ABY9C1E0). The data set is described as above. It is filed as biochemical. As to the method: as §1, §2
Data set [5] concerns the target T3, VvGT15a. It is filed as biochemical. The settings on record: UDP-glucose fixed 833 μM (for UDP-glucose: geraniol fixed 1.25 mM), Tris-HCl pH 7.5, 30° C. As to the method:
(§3) The measurements were performed under the following conditions. […] Radioactivity was determined by LSC.

For data set [6], the target named is T5, VvGT15b (Vitis vinifera, UniProt A0ABY9C1E0). It is filed as biochemical. As to conditions: UDP-glucose fixed 833 μM (for UDP-glucose: geraniol fixed 1.25 mM), Tris-HCl pH 7.5, 30° C. As to the method: as §3
T5 sequence (A0ABY9C1E0 entry or part of it): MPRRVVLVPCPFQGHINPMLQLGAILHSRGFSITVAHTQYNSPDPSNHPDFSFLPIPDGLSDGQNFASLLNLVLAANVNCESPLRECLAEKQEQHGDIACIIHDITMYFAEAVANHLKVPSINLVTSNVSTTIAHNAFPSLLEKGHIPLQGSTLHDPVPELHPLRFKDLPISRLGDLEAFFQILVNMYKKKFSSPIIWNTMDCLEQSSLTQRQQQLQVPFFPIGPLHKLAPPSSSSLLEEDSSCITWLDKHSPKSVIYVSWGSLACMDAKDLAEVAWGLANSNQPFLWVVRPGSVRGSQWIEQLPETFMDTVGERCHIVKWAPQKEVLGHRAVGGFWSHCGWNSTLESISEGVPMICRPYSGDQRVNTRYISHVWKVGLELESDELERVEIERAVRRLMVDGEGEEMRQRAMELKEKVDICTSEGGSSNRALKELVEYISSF
Data set [7] concerns the target T4, VvGT15c. It is filed as biochemical. As to conditions: UDP-glucose fixed 833 μM (for UDP-glucose: geraniol fixed 1.25 mM), Tris-HCl pH 7.5, 30° C. On the procedure:
as §3

Data set [8] deals with T2, VvGT16. The settings on record: UDP-glucose fixed 512.5 μM (for UDP-glucose: geraniol fixed 1.25 mM), Tris-HCl pH 8.5, 30° C. As to the method: as §3
For data set [9], the target named is T5, VvGT15b. Description: Substrate screening, radiochemical analysis with UDP-[14C]glucose. Format: biochemical. On the procedure:
as §1, §2

Data set [10] addresses T1, VvGT14a. The settings on record: for kcat/KM of VvGT14a higher than the value for UGT85B1 from Sorghum bicolor: VvGT14a versus UGT85B1; for Km / kcat: pH 8.5.
The next data set concerns CaUGT2. As to conditions: CaUGT2, natural substrate; cited from earlier work.
A further data set addresses T6, VvGT1 (Vitis vinifera, UniProt P51094).
T6 sequence (P51094 1-456): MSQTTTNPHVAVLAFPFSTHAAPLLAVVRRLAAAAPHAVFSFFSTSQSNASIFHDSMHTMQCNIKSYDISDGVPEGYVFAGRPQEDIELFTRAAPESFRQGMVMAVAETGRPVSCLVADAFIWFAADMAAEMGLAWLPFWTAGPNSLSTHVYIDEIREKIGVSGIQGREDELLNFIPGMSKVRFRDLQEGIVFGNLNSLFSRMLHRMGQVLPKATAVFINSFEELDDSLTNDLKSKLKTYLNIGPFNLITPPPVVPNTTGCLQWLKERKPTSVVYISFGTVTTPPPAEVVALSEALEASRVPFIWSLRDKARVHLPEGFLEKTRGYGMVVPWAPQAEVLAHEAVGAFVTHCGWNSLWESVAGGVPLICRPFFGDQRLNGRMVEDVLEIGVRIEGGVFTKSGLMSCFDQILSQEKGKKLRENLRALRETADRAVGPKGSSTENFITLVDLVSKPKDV
The settings on record: VvGT1, natural substrate; cited from earlier work.

The next data set has as its system VvGT5. The settings on record: cited from earlier work.
In a further data set the test system is VvGT6. As to conditions: cited from earlier work.
The subject of another data set is UGT71G1. As to conditions: cited from earlier work.
Substrate in data set [11]: CC(C)=CCC[C@H](C)CCO
Nature of the data set: purified protein, by the assay type. The settings on record: UDP-glucose fixed 833 μM (for UDP-glucose: geraniol fixed 1.25 mM), Tris-HCl pH 7.5, 30° C.

Substrate in data set [12]: CC(C)=CCC/C(C)=C\CO
Nature of the data set: purified protein, by the assay type. The settings on record: UDP-glucose fixed 833 μM (for UDP-glucose: geraniol fixed 1.25 mM), Tris-HCl pH 7.5, 30° C. It is filed as biochemical, Vitis vinifera.

Substitutions are numbered along the chain they refer to. Read-outs that look alike come from different tables or passages of the source.

T4 sequence (A0ABY9C1E0 entry or part of it): as the sequence (A0ABY9C1E0 entry or part of it) above
T2 sequence (F6HTJ4 entry or part of it): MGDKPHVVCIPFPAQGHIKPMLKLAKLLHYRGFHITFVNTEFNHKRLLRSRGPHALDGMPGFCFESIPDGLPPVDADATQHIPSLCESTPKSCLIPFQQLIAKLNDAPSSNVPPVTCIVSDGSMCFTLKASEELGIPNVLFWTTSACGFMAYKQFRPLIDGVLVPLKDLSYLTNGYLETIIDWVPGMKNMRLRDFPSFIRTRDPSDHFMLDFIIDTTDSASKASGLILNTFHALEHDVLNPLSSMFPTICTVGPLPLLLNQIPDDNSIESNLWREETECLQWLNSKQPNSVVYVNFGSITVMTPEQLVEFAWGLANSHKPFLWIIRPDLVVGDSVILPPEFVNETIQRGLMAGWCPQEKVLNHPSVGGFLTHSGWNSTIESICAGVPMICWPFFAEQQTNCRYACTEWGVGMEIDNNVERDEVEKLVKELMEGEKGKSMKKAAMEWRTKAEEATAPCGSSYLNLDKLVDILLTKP
T1 sequence (F6H0R6 entry or part of it): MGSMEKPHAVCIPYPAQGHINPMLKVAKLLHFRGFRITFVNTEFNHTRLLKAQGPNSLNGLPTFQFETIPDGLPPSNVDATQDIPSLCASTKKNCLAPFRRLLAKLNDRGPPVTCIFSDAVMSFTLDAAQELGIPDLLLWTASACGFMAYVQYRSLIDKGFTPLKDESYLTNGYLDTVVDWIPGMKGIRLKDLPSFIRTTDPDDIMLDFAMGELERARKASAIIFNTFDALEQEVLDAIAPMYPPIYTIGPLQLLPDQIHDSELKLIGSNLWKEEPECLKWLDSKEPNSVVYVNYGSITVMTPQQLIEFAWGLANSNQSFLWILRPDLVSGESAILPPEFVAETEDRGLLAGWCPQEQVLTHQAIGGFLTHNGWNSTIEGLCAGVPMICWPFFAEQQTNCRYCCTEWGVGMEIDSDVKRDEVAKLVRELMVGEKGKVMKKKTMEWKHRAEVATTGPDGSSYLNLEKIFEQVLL

Regarding `CC(C)=CCO` [3-methyl-2-butenol], the “conversion as substrate (in words)” value was “catalytic activity” on VvGT14a [1] and “transformed” at VvGT16 [2].

In the case of `C=C(C)CCO` [3-methyl-3-butenol], the “conversion as substrate (in words)” value on VvGT14a [1] is “catalytic activity”.

For `C=CC(C)(O)CC/C=C(\C)CO` (stereo not shown) [8-hydroxylinalool], the entries for the “conversion as substrate (in words)” value at VvGT14a [1], at VvGT15a [3] and on VvGT15c [4] were “catalytic activity”, “able to use” and “able to use”, respectively.

As for `CC(C)=CCC/C(C)=C/CO` [Geraniol, (E)-3,7-dimethyl-2,6-octadien-1-ol], the Michaelis constant (Km) on VvGT15a [5] was 63 µM; at VvGT15b [6] it was 81 µM; on VvGT15c [7], 43 µM; on VvGT14a [10], 9 µM. The kcat on VvGT15a [5] stood at 0.12 s⁻¹; at VvGT15b [6] it was 0.10 s⁻¹; at VvGT15b [6] (listed as geraniol), 0.1 s⁻¹; on VvGT15c [7] it was 0.17 s⁻¹; at VvGT16 [8] it was 0.015 s⁻¹; on VvGT14a [10], 0.02 s⁻¹. Further, the “conversion as substrate (in words)” value at VvGT14a [1] is “preferred”; on VvGT15a [3] it was “glucosylated primarily”; at VvGT15b [9], “glucosylated primarily”; on VvGT15c [4] it was “glucosylated primarily”. In addition, the “kcat/KM of VvGT14a higher than the value for UGT85B1 from Sorghum bicolor” value at VvGT14a [10] turned out to be 4 fold.

With `CC(C)=CCC/C(C)=C\CO` [Nerol, (Z)-3,7-dimethyl-2,6-octadien-1-ol], the figures for the kcat at VvGT16 [8] and on VvGT14a [10] were 0.009 s⁻¹ and 0.02 s⁻¹, respectively. Moreover, the “conversion as substrate (in words)” value is on record as “glucosylated primarily” at VvGT15a [3], “glucosylated primarily” at VvGT15b [9], “glucosylated primarily” at VvGT15c [4] and “transformed” at VvGT16 [2]. Moreover, the “kcat/KM of VvGT14a higher than the value for UGT85B1 from Sorghum bicolor” value at VvGT14a [10] is 40 fold. Besides, the Km on VvGT14a [10] is 10 µM.

Consider `OCc1ccccc1` [benzyl alcohol], for which the “conversion as substrate (in words)” value on VvGT14a [1] is given as “catalytic activity”; at VvGT16 [2] it was “highest relative activity”.

As for `CC/C=C\CCO` [cis 3-hexenol], the “conversion as substrate (in words)” value on VvGT14a [1] was “catalytic activity”; at VvGT16 [2], “transformed”.

As for `COc1cc(/C=C/C(=O)CC(=O)/C=C/c2ccc(O)c(OC)c2)ccc1O` [curcumin], in the data set with CaUGT2, the Km is 43.9 µM and the kcat was 0.0165 s⁻¹.

Turning to `C=CCc1ccc(O)c(OC)c1` [eugenol], the “conversion as substrate (in words)” value at VvGT14a [1] was “catalytic activity”.

Turning to `CC(C)=CCCC(C)=CCCC(C)=CCO` [farnesol], the “conversion as substrate (in words)” value on VvGT14a [1] was “catalytic activity”; at VvGT15a [3], “low activity”.

Regarding `CCCCCCO` [hexanol], the “conversion as substrate (in words)” value on VvGT15a [3], on VvGT15b [9] and on VvGT15c [4] was “glucosylated primarily” throughout.

In the case of `N#CC(O)c1ccccc1` (stereo not shown) [mandelonitrile], the “conversion as substrate (in words)” value on VvGT14a [1] is given as “catalytic activity”; at VvGT14a [1] (listed as Mandelonitrile), “poor substrate”; on VvGT15a [3], “not accepted at all”; at VvGT15b [9], “not accepted at all”; at VvGT15c [4] it was “not accepted at all”.

`CCCCCCCCO` [octanol]: the “conversion as substrate (in words)” value on VvGT15a [3], at VvGT15b [9] and at VvGT15c [4] was “glucosylated primarily” in each case.

In the case of `O=c1c(O)c(-c2ccc(O)c(O)c2)oc2cc(O)cc(O)c12` [quercetin], the Michaelis-Menten constant (Km) on VvGT1 is 31 µM; in the data set with VvGT5, 5.6 µM; in the data set on VvGT6, 9.24 µM; in the data set with UGT71G1, 57 µM. Moreover, the turnover number (kcat) at VvGT1 is 0.075 s⁻¹; in the data set with VvGT5, 7.16 s⁻¹; with VvGT6, 0.76 s⁻¹; in the data set on UGT71G1 it was 0.0175 s⁻¹.

Consider `CCC/C=C/CO` [trans 2-hexenol], for which the “conversion as substrate (in words)” value at VvGT14a [1] was “catalytic activity”; at VvGT15a [3] it was “able to use”; at VvGT15c [4] it was “able to use”; on VvGT16 [2], “transformed”.

B1: VvGT15a (Vitis vinifera) (protein)
chain: MPRRVVLVPCPFQGHINPMLQLGAILHSRGFSITVAHTQYNSPDPSNHPDFSFLPIPDGLSDGQNFASLLNLVLAANVNCESPLREYLAEKQEQHGDIACIIHDITMYFAEAVANHLKVPSINLVTSNVSTTIAHNAFPSLLEKGHIPLQGSTLHDPVPELHPLRFKDLPISRLGDLEVFFQILVNMYKKKFSSPIIWNTMDCLEQSSLTQRQQQLQVPFFPIGPLHKLAPPSSSSLLEEDSSCITWLDKQSPKSVIYVSWGSLACMDAKDLAEVAWGLANSNQPFLWVVRPGSVRGSQWIEQLPETFMDTVGERCHIVKWAPQKEVLGHRAVGGFWSHCGWNSTLESISEGVPMICRPYSGDQRVNTRYISHVWKVGLELESDELERVEIERAVRRLMVDGEGEEMRQRAMELKEKVEICTSEGGSSNRALKELVEYISSF
For B1, in data set [11] (other: VvGT15a), the Michaelis-Menten constant (Km) is 29 ± 3.0 µM, the kcat came to 0.02 s⁻¹ and the kcat/Km amounted to 900 M⁻¹ s⁻¹. Besides, in data set [12] (other: VvGT15a), the Km was 48 ± 1.7 µM, the turnover number (kcat) came out at 0.04 s⁻¹ and the kcat/Km was found to be 700 M⁻¹ s⁻¹.

B2: VvGT15c (Vitis vinifera) (protein)
chain: B1 chain with Y87C, V179A, Q251H, E419D
In the case of B2, in [11] (other: VvGT15c), the Michaelis constant (Km) was determined as 20 ± 1.6 µM, the turnover number (kcat) came out at 0.03 s⁻¹ and the catalytic efficiency (kcat/Km) was 1800 M⁻¹ s⁻¹. Also, in data set [12] (other: VvGT15c), the Michaelis-Menten constant (Km) turned out to be 28 ± 0.9 µM, the kcat amounted to 0.06 s⁻¹ and the catalytic efficiency (kcat/Km) is 2200 M⁻¹ s⁻¹.

B3: VvGT15b (Vitis vinifera) (protein)
chain: B1 chain with Y87C, V179A, Q251H, E419D
As for B3, in data set [11] (other: VvGT15b), the Km turned out to be 55 ± 1.3 µM, the catalytic constant (kcat) came out at 0.03 s⁻¹ and the kcat/Km is 600 M⁻¹ s⁻¹. In [12] (other: VvGT15b), the Michaelis-Menten constant (Km) came to 40 ± 3.7 µM, the catalytic constant (kcat) was 0.03 s⁻¹ and the specificity constant (kcat/Km) worked out at 800 M⁻¹ s⁻¹.
